A short description of series [1]: Pharmacokinetics in mice. Format: in vivo. To be noted: mouse, plasma, male CD-1 mice; for AUC / clearance / half-life / Vd: 1 mg/kg, iv; for Vd: read-out: Vdss. Summed up: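 Male CD-1 mice (3 per group) dosed at 1 mg/kg IV bolus and 5 mg/kg oral gavage in 5% DMSO/40% PEG400/55% water. Jugular blood sampled from 0.033 (IV) or 0.083 (PO) up to 24 h. Plasma measured by LC/MS/MS, with PK parameters from non-compartmental analysis.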

Series [2] has as its target T1, human soluble ENPP1 (Homo sapiens, UniProt P22413).
T1 construct: 20 ng of human soluble ENPP1
T1 sequence (P22413 103-925 limits assumed): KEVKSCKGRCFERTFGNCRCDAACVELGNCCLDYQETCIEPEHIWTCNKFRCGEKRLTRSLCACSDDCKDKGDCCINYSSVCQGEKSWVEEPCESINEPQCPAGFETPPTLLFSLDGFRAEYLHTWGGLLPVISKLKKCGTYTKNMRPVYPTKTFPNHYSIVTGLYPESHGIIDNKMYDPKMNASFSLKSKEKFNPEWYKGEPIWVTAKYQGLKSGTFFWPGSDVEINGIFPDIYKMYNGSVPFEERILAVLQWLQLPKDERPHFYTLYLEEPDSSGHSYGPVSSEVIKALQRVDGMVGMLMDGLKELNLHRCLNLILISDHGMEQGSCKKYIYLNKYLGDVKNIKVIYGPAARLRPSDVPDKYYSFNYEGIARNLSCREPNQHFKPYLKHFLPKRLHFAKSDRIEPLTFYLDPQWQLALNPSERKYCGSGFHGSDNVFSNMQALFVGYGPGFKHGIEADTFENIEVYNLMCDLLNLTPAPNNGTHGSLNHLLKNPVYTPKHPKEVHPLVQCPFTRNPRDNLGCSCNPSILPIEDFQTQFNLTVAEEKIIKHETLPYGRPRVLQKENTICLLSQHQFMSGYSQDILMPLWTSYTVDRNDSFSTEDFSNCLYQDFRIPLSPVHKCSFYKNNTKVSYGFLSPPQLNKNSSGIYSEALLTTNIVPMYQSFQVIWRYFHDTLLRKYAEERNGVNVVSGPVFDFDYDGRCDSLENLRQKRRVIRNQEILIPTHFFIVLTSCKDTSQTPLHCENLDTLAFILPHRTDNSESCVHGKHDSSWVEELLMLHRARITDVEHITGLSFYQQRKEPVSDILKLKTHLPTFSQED
Briefly: ENPP1 activity assay using p-Nitrophenyl-5′-TMP as a substrate. Format: biochemical. Summed up: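 Percent inhibition, set against uninhibited-enzyme and blank wells, was fitted to a four-parameter variable-slope model for IC50. Chromogenic read-out was p-nitrophenol released from TMP-pNP, added as a 2 mM […] solution for 1 h at RT. Before that, 20 ng soluble ENPP1 sat 30 min with compound.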

In series [3] the target is T1, human soluble ENPP1. As to the kind of experiment: ENPP1 activity assay using p-Nitrophenyl-5′-AMP as a substrate. Format: biochemical. In a few lines: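 Absorbance at 405 nm tracks p-nitrophenol from AMP-pNP hydrolysis after 1 h at room temperature, substrate added as 3 mM (2× final) following 30 min enzyme–compound preincubation. Enzyme: 35 ng human soluble ENPP1. IC50 fitted (variable-slope four-parameter) from percent inhibition normalized to max and blank.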

Results on 3 compounds are retold here after patent US11673889B2, “Substituted imidazo[4,5-c][1,8]naphthyridines as phosphodiesterase inhibitors” (Nanjing Zhengxiang Pharmaceuticals Co., Ltd., priority 2019, dated 2023).

With `COc1cc2ncc3ncn(Cc4ccc(S(N)(=O)=O)cn4)c3c2cc1OC` [Compound 12, 6-((7,8-dimethoxy-1H-imidazo[4,5-c]quinolin-1-yl)methyl)pyridine-3-sulfonamide], in series [1], the AUC amounted to 93 ng·h/mL, the clearance turned out to be 180 mL/min/kg, the half-life is 15 min and the Vd is 2.9 L/kg. In addition, in series [1] (oral gavage (PO) at 5 mg/kg vs IV 1 mg/kg), the bioavailability turned out to be 0%. In series [2], this compound returned an IC50 of 1.2 nM. Also, in series [3], the IC50 came out at 3.9 nM.
With `COc1ccc2c(ncc3nc(C)n(Cc4ccc(S(N)(=O)=O)cc4)c32)n1` [Compound 48, 4-((7-methoxy-2-methyl-1H-imidazo[4,5-c][1,8]naphthyridin-1-yl)methyl)benzenesulfonamide], in series [1], the AUC worked out at 239 ng·h/mL, the clearance is 70 mL/min/kg, the half-life is 19.8 min and the Vd was found to be 1.7 L/kg. The compound further registered an IC50 in series [2] of 0.29 nM. The midpoint of inhibition in series [3], the IC50, lay at 0.44 nM.
Regarding `COc1ccc2c(n1)nc(C)c1nc(C)n(Cc3ccc(S(N)(=O)=O)cn3)c12` [Compound 89, 6-((7-methoxy-2,4-dimethyl-1H-imidazo[4,5-c][1,8]naphthyridin-1-yl)methyl)pyridine-3-sulfonamide], in series [1], the AUC is 656 ng·h/mL, the clearance was found to be 26 mL/min/kg, the half-life is 32.4 min and the Vd worked out at 0.8 L/kg. The same compound showed an IC50 in series [2] of 0.52 nM. Inhibition in series [3] was half-maximal at 2.1 nM (IC50).
